Assay results: patent publication US10526316B2, “Quinoxaline and pyridopyrazine derivatives as PI3Kβ inhibitors” (Janssen Pharmaceutica NV, priority 2015, dated 2020)

How the values were obtained:
PI3Kδ = target: T1, PI3Kδ (Homo sapiens, UniProt O00329); experiment: Enzyme binding assay (KINOMEscan, DiscoveRx); conditions: PIK3Cδ_h
T1 construct: purchased DiscoveRx Corporation, San Diego (contract service, KINOMEscan)
T1 sequence (O00329 1-1044): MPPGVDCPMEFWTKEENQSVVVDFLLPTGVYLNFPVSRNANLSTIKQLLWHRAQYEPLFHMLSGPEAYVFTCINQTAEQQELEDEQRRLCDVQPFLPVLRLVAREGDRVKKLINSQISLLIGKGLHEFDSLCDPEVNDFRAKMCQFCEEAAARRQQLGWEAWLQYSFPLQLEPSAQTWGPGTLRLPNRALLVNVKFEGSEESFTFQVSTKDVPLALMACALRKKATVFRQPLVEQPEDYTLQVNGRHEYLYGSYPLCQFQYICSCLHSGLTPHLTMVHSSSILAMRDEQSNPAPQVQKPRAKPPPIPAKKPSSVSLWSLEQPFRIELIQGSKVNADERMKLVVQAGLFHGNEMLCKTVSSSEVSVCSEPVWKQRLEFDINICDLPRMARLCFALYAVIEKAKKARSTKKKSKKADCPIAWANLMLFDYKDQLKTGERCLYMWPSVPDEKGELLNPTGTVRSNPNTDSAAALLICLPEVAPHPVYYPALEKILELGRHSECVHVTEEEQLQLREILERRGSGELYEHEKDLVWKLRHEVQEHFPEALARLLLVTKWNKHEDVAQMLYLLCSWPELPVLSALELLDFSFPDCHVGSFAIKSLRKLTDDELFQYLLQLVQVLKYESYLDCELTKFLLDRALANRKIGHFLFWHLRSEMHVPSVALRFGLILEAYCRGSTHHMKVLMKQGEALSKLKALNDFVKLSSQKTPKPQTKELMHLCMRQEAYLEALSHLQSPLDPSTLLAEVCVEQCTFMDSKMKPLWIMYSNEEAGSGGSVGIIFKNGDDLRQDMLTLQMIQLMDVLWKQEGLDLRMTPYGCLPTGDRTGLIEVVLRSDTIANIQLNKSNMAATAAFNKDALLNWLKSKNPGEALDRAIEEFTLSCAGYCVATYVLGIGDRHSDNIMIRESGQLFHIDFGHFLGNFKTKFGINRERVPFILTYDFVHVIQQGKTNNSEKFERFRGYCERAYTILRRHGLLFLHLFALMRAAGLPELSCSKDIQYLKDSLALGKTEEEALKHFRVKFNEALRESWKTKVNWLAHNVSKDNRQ
In short: (§1)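 Kinase binding measured via KINOMEscan, reported as affinity.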

kinase enzymes [1] = target: T2, kinase enzymes (Homo sapiens, UniProt P48736); experiment: Enzyme binding assay (KINOMEscan, DiscoveRx), further kinases of Table A; conditions: PIK3Cγ_h
T2 construct: purchased DiscoveRx Corporation, San Diego (contract service, KINOMEscan)
T2 sequence (P48736 whole entry): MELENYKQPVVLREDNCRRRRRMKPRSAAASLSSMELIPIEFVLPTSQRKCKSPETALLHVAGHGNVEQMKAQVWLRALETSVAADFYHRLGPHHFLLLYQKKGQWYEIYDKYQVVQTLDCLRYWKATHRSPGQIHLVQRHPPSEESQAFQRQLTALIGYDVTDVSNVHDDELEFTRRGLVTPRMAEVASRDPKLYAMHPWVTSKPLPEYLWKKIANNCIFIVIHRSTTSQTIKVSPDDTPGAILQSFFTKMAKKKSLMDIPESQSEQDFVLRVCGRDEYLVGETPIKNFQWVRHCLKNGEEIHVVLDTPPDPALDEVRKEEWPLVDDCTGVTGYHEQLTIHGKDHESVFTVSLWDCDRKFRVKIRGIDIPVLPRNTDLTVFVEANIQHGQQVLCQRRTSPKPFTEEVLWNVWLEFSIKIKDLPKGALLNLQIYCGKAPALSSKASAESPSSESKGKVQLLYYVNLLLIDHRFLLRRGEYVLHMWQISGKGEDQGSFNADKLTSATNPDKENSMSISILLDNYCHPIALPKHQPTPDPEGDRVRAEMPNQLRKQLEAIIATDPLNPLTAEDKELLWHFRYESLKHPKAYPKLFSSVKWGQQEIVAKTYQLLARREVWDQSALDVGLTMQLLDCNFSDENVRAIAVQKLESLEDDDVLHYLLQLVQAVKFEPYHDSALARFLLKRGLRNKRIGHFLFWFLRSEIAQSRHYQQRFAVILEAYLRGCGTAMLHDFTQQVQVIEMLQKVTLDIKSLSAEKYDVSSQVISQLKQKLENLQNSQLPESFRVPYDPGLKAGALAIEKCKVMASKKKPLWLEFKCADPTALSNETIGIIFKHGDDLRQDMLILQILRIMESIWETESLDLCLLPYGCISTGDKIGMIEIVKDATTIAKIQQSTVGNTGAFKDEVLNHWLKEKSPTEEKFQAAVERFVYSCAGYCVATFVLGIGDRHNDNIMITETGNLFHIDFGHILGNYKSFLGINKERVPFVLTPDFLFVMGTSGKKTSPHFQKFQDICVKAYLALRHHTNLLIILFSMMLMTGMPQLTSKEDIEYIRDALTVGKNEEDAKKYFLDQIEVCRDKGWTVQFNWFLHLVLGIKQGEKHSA
In short: as §1

kinase enzymes [2] = target: T3, kinase enzymes (Homo sapiens, UniProt P42336); experiment: as above; conditions: PIK3Cα_h
T3 construct: purchased DiscoveRx Corporation, San Diego (contract service, KINOMEscan)
T3 sequence (P42336 whole entry): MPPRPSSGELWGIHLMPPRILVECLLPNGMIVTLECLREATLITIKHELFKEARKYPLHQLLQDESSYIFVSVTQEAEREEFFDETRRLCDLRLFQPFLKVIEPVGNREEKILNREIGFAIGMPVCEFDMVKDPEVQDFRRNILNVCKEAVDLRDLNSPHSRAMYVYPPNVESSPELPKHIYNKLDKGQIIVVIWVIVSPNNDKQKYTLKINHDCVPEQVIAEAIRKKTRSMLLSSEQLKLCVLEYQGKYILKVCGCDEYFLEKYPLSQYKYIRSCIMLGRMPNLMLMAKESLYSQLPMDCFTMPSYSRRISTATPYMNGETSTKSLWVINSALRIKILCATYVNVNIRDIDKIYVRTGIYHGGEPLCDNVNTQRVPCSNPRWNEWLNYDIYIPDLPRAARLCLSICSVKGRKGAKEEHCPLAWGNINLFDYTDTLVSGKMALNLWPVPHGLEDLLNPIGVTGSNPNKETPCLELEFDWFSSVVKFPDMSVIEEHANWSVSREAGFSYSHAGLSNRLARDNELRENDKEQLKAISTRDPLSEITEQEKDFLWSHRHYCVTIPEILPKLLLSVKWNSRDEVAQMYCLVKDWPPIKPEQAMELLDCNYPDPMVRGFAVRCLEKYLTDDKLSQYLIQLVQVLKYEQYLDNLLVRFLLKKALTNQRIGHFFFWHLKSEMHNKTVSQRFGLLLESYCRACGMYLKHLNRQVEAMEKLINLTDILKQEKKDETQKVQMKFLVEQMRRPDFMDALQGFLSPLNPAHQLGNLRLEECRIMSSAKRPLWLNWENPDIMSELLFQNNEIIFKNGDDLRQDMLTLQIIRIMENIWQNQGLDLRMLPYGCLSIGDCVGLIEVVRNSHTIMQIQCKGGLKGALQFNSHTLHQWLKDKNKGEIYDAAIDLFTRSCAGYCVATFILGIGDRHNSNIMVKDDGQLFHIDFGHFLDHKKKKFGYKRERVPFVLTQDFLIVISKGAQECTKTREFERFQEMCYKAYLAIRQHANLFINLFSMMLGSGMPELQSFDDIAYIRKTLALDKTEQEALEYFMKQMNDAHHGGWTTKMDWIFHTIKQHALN
In short: as §1

kinase enzymes [3] = target: T4, kinase enzymes (Homo sapiens, UniProt P42345); experiment: as above; conditions: MTOR_h
T4 construct: purchased DiscoveRx Corporation, San Diego (contract service, KINOMEscan)
In short: as §1

PI3Kβ = target: T5, PI3Kβ (Homo sapiens, UniProt P42338); experiment: Enzyme binding assay (KINOMEscan, DiscoveRx); conditions: PIK3Cβ_h, read-out: Kd PIK3Cβ_h
T5 construct: purchased DiscoveRx Corporation, San Diego (contract service, KINOMEscan)
T5 sequence (P42338 whole entry): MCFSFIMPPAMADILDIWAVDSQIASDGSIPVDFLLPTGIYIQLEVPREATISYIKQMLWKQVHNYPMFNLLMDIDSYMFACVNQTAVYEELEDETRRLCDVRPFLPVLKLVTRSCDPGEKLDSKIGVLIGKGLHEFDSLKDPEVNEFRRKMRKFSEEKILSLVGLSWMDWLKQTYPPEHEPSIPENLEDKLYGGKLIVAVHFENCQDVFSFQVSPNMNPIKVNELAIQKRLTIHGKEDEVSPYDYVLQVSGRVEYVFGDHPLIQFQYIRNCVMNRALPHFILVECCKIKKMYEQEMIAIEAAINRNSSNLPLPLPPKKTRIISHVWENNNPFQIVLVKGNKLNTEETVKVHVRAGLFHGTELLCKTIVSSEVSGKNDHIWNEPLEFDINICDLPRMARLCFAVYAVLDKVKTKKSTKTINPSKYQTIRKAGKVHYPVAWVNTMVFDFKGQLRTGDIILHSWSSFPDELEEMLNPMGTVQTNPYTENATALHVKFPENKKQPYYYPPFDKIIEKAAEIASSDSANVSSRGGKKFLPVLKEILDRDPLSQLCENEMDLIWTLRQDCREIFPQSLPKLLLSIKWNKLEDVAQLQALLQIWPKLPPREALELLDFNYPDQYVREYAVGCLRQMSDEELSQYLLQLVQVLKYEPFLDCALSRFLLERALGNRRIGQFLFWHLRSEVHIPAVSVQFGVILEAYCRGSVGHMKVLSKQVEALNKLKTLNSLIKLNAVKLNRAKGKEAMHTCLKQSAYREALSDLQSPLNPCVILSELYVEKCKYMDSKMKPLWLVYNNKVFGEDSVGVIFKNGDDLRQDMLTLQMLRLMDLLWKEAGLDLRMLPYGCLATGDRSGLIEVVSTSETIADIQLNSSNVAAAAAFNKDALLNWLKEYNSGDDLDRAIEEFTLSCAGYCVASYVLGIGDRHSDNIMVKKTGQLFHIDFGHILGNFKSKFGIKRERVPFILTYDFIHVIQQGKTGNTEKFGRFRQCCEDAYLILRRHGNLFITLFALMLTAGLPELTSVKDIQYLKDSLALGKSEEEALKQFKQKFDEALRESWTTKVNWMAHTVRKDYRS
In short: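 Reported Kd (nM) reflects inhibitor binding to the kinase, as measured by KINOMEscan technology.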

[4] = system: Akt phosphorylated at Ser473 in PC-3 cells; experiment: Cellular assay: phosphorylation of Akt at Ser473 in PC-3 cells (MSD ELISA); assay type: cell-based; conditions: Homo sapiens, PC-3, 1 h, PC-3 cells, 60 min compound incubation, MSD ELISA; read-out: IC50 pAkt_S473
In short: (§2)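 PC-3 cells were exposed to compound or 0.3% DMSO for 60 min at 37° C, 5% CO2, then lysed in ice-cold buffer. Phospho-Akt was captured on site-specific antibody-coated plates and detected with Sulfo-tag anti-total Akt by electrochemiluminescence. IC50 values came from five-concentration response curves.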

[5] = system: Akt phosphorylated at Thr308 in PC-3 cells; experiment: Cellular assay: phosphorylation of Akt at Thr308 in PC-3 cells (MSD ELISA); assay type: cell-based; conditions: Homo sapiens, PC-3, 1 h, PC-3 cells, 60 min compound incubation, MSD ELISA; read-out: IC50 pAkt_Thr308
In short: as §2

Row | SMILES | Kd (PI3Kδ) | melting point | Kd (kinase enzymes [1]) | Kd (kinase enzymes [2]) | Kd (kinase enzymes [3]) | Kd (PI3Kβ) | IC50 [4] | IC50 [5]
1 | CC(Oc1ccc(F)c(F)c1)c1cc(C(=O)N2CCN3CCC[C@@H]3C2)cc2ncc(N3CCOCC3)nc12 (mixture of isomers) [Compound 375] | 2.19 µM | 80 °C | > 30.2 µM | 18.6 µM | > 30.2 µM | 0.117 µM | – | –
2 | CC(Oc1cc(F)cc(F)c1)c1cc(C(=O)NCCO)cc2ncc(N3CCOCC3)nc12 (single isomer, unassigned) [Compound 200] | > 30.2 µM | 115 °C | > 30.2 µM | > 30.2 µM | > 30.2 µM | 2.4 µM | – | –
3 | CC(Nc1cc(F)cc(F)c1)c1cc(C(=O)NC[C@H](C)O)cc2ncc(N3CCOCC3)nc12 (single isomer, unassigned) [Compound 246b] | > 30.2 µM | 75 °C | 6.17 µM | > 30.2 µM | > 30.2 µM | 16.6 µM | – | –
4 | COC(=O)c1cc(C(C)Nc2cccc(F)c2)c2nc(N3CCOCC3)cnc2c1 (single isomer, unassigned) [Compound 262a] | 24.5 µM | 199.7 °C | > 30.2 µM | > 30.2 µM | > 30.2 µM | 1.78 µM | – | –
5 | COC(=O)c1cc(C(C)Nc2cccc(F)c2)c2nc(N3CCOCC3)cnc2c1 (single isomer, unassigned) [Compound 262b] | > 30.2 µM | 199.5 °C | > 30.2 µM | > 30.2 µM | > 30.2 µM | 11.5 µM | – | –
6 | CC(C)NCCNC(=O)c1cc(C(C)Nc2cc(F)c(F)c(F)c2)c2nc(N3CCOCC3)cnc2c1 (single isomer, unassigned) [Compound 283b] | 18.2 µM | 170 °C | 29.5 µM | > 30.2 µM | > 30.2 µM | 1.38 µM | – | –
7 | CC(Nc1cccc(F)c1)c1cc(C(=O)N2CCC[C@H](O)C2)cc2ncc(N3CCOCC3)nc12 (single isomer, unassigned) [Compound 320b] | 5.13 µM | 136 °C | > 30.2 µM | 11.5 µM | > 30.2 µM | 0.069 µM | – | –
8 | CC(Nc1cccc(F)c1)c1cc(C(=O)N2CC[C@@H](O)C2)cc2ncc(N3CCOCC3)nc12 (single isomer, unassigned) [Compound 321b] | 7.41 µM | 128 °C | > 30.2 µM | 18.6 µM | > 30.2 µM | 0.166 µM | – | –
9 | Cc1ccc(NC(C)c2cc(C(=O)NCCN(C)C)cc3ncc(N4CCOCC4)nc23)cc1F (single isomer, unassigned) [Compound 407a] | 0.724 µM | 115 °C | 7.94 µM | 2.04 µM | 10.5 µM | 0.007 µM | – | –
10 | Cc1ccc(NC(C)c2cc(C(=O)NCCN(C)C)cc3ncc(N4CCOCC4)nc23)cc1F (single isomer, unassigned) [Compound 407b] | 2.95 µM | 105 °C | 3.8 µM | 4.37 µM | > 30.2 µM | 0.339 µM | – | –
11 | [2H]C([2H])(O)C([2H])([2H])NC(=O)c1cc(C(C)Nc2cccc(F)c2)c2nc(N3CCOCC3)cnc2c1 (single isomer, unassigned) [Compound 408a] | 0.331 µM | 127 °C | 4.27 µM | 1.44 µM | 26.3 µM | 0.003 µM | – | –
12 | [2H]C([2H])(O)C([2H])([2H])NC(=O)c1cc(C(C)Nc2cccc(F)c2)c2nc(N3CCOCC3)cnc2c1 (single isomer, unassigned) [Compound 408b] | 17.4 µM | 123 °C | 8.13 µM | 23.4 µM | > 30.2 µM | 0.324 µM | – | –
13 | CC(Nc1cc(F)cc(F)c1)c1cc(C(=O)NCCN(C)C)cc2ncc(N3CCOCC3)nc12 (centres unmarked) [Compound 183] | – | 145 °C | 1.74 µM | 2.51 µM | – | 0.0001 µM | 0.006 µM | 0.003 µM
14 | C[C@@H](Nc1cc(F)cc(F)c1)c1cc(C(=O)NCCN(C)C)cc2ncc(N3CCOCC3)nc12 [Compound 184] | – | 157 °C | 0.994 µM | 0.599 µM | 18.9 µM | 0.0002 µM | 0.002 µM | 0.002 µM
15 | C[C@H](Nc1cc(F)cc(F)c1)c1cc(C(=O)NCCN(C)C)cc2ncc(N3CCOCC3)nc12 [Compound 185] | – | 152 °C | 4.27 µM | 5.75 µM | – | 0.029 µM | ~0.331 µM | 0.148 µM
16 | COC(=O)c1cc(C(C)Nc2cc(F)c(F)c(F)c2)c2nc(N3CCOCC3)cnc2c1 (centres unmarked) [Compound 266] | – | 220 °C | – | – | – | – | – | –
17 | COC(=O)c1cc(C(C)Nc2ccc(C)c(F)c2)c2nc(N3CCOCC3)cnc2c1 (centres unmarked) [Compound 293] | > 30.2 µM | 186 °C | > 30.2 µM | > 30.2 µM | > 30.2 µM | > 30.2 µM | – | –
18 | CC(Nc1ccc(F)c(F)c1)c1cc(C(=O)NC2CCNC2)cc2ncc(N3CCOCC3)nc12 (centres unmarked) [Compound 325a] | 11.5 µM | 144 °C | 14.1 µM | 10.7 µM | > 30.2 µM | 1.32 µM | – | –
19 | Cc1c(F)cccc1NCc1cc(C(=O)NCCN(C)C)cc2ncc(N3CCOCC3)nc12 [Compound 328] | – | 98 °C | – | – | – | – | 0.009 µM | 0.009 µM
20 | CCOC(=O)CNC(=O)c1cc(C(C)Nc2cccc(F)c2)c2nc(N3CCOCC3)cnc2c1 (centres unmarked) [Compound 392a] | 2.82 µM | 80 °C | 14.1 µM | 3.98 µM | 20.4 µM | 0.021 µM | – | –
